“Also recorded” adds a separate entry of the source. Where two headings read alike, the source gives them in different places.
Key:
HL-60 cells = experiment: Differentiation of HL-60 cells (NBT reduction), 4 days; format: cell-based, human; conditions: for Percentage of NBT positive cells, Exp. 1 / Percentage of NBT positive cells, Exp. 2 / Percentage of NBT positive cells, Average / EC50: 4 days; for Percentage of NBT positive cells, Average: average of Exp. 1 and 2; for EC50: Homo sapiens, HL-60, 96 h, NBT reduction, read-out: ED50 (concentration of compound which induced differentiation of 50% of the cells)
Protocol: Effect of 1,25(OH)2 -16-ene-24-oxo-D3 on the Morphological Differentiation of HL-60 Cells
Tissue culture medium used was RPMI-1640 (Gibco) supplemented with glutamine, antibiotics and 20% fetal bovine serum.
1,25(OH)2 -16-ene-D3 and 1,25(OH)2 -16-ene-24-oxo-D3 were dissolved in sufficient ethanol to yield stock solutions of 1 mM. Reduced lighting was used when working with the compounds and the stock solutions were stored in the dark at -20 C. in an argon atmosphere. The stock solutions were added to flasks, which were supplemented with sufficient ethanol to achieve the final concentration of 0.1%.
A HL-60 tumor cell line was originally derived from a patient with promyelocytic leukemia and was obtained from the American Type Culture Collection (ATCC #CCL240). The cells were maintained in liquid cultures by serial passage twice weekly in the tissue culture medium. For each experimental point, cells were grown in replicate flasks. The cells were seeded at a rate of 10^6 cells per 25 cm^2 flask and grown in the presence of the compounds for a total of 4 days. Ethanol, used as the vehicle, was kept constant in all dilutions in each experiment and had no effect on the cell differentiation at the concentrations used […]. After 4 days of incubation at 37° C., cultures were evaluated for cell differentiation.
Quantitation of differentiated cells was done by the biochemical method of nitroblue tetrazolium reduction (NBT) reduction. A 1 ml aliquot of cell suspension was removed from each flask and centrifuged for 10 minutes, and resuspended in about 200 μl of a work solution. The work solution contained 100 ng of tetradecanoyl phorbol acetate per ml of NBT and was kept in a covered vial on ice. The NBT was prepared fresh on the day of enumeration to 1 mg/ml in growth medium. The cells were incubated in a 37° C. water bath for 30 minutes. An aliquot was placed into a hemocytometer and the total number of blue-black cells per approximately 200 cells was determined. The percentage of differentiated cells was then calculated.
The results are also shown as the concentration of compound which induced differentiation of 50% of the cells (ED50).

hydroxylase enzymes = experiment: Metabolism in perfused rat kidneys; format: in vitro ADME; conditions: for resistance to further hydroxylation (in words): rat kidney perfusion
Protocol: The compounds of formulas I and II were prepared by perfusing 1,25(OH)2 -16-ene-D3 in rat kidneys, extracting the perfusate and isolating the compounds of formulas I and II.
Crystalline 1,25(OH)2 -16-ene-D3 was synthesized as described in U.S. Pat. No. 5,087,619, which is herein incorporated by reference to the extent necessary to enable one of skill in the art to make this invention. Rat kidneys were perfused with the 1,25(OH)2 -16-ene-D3 as described in Am. J. Physiol. 1982, 243 E265-271 and in Biochemistry 1987, 26, 324-331. Cold 1,25(OH)2 -16-ene-D3 (400 nmoles) was introduced into 100 mL of perfusate and the kidney perfusion was continued for 8 hours. Lipid extraction of the final kidney perfusate was performed according to the procedure described in Can. J. Biochem. Physiol. 1959, 37, 911-917. Half of the bulk lipid extract from the final perfusate of about 100 mL was then subjected directly to high pressure liquid chromatography (HPLC) performed with a Waters Model 600 equipped with a Model 990 photo diode array detector (Waters Associates, Milford, MA). HPLC analysis was performed on the lipid extract obtained from 50 mL of perfusate under the following conditions: Zorbax-SIL column (25 cm×4.6 mm); Hexane: 2-propanol (90:10), Flow rate: 2 mL/minutes. A known amount of 25(S),26(OH)2 -D3 was added to the perfusate at the time of lipid extraction to assess extraction of vitamin D metabolites in general. Fractions of each individual metabolite from the first HPLC run was pooled and subjected to a second HPLC run using the same Zorbax-SIL column eluted with methylene chloride:2-propanol […]. Each metablite obtained from the second HPLC run was chromatographed twice using the first HPLC system. At this time, the purity of each metabolite was adequate for its structure identification process. A control perfusion was performed with cold 1,25(OH)2 -D3 in a similar fashion and the lipid extract of the final perfusate was analyzed using the same HPLC systems as above.

human keratinocytes [1] = experiment: Keratinocyte proliferation, assay 2 (KGM without calcium supplementation, 7 days); format: cell-based; conditions: for proliferation of human keratinocytes / skin cells (in words): assays 1 and 2 not distinguished; for inhibition at 0.03 µM / inhibition at 0.1 µM / inhibition at 0.3 µM / inhibition at 1 µM: Homo sapiens, Keratinocyte, Exp. 1, read-out: Percentage Inhibition of Controls, Exp. 1; for inhibition at 0.03 µM: assay 2, 0.03 μM; for inhibition at 0.1 µM: assay 2, 0.1 μM; for inhibition at 0.3 µM: assay 2, 0.3 μM; for inhibition at 1 µM: assay 2, 1.0 μM; for antiproliferative activity, assay 2 (in words): assay 2, lower doses; for dose response (in words): low calcium and more rapidly dividing cells
Protocol: (§1) Quantitation of Morphological Changes During Keratinocyte Proliferation Materials and Methods
(§2) Human neonatal foreskins were collected by circumcision and placed into tubes containing Dulbecco's Modified Eagle's Medium (DMEM) with 10% serum. On arrival at the laboratory, they were mechanically trimmed of excess dermis, and treated with a solution of trypsin/EDTA (0.05%/0.02%) at 4° C. overnight. The epidermis was stripped from the dermis, agitated in buffered saline containing soybean trypsin inhibitor to remove basal keratinocytes and the stratum cornea layer was removed. The separated cells were centrifuged, resuspended in the above media, counted, and the cells plated onto plastic culture dishes or plates at a density of 25,000 cells/cm^2 in keratinocyte growth media (KGM®-modified MCDB 153, Clonetics, Inc., Catalog #CC3001) according to protocols developed by Boyce and Ham (In Vitro Models for Cancer Research III, 246-274, 1986) for MCDB 153 media. The cultures were incubated in humidified chambers with 5% CO2 at 37° C. The cultures were refed with fresh media two to three times per week. Prior to reaching confluency the cells were replated (passage one) at 25,000 cells/well on 6-well cluster plates (Costar catalog #3506) in KGM.
(§3) 1 milligram quantities were received in amber glass vials, and stored at -20° C. Sufficient 100% ethanol was added directly to the vials to obtain a millimolar solution that was subsequently aliquoted into small amber vials, overlayed with argon gas and stored at […] Each stock solution was thawed once, used and discarded. Aliquots from the stock solutions were diluted directly into medium and then serially diluted from micromolar to 10^-12 M concentrations. Dilutions from 10^-8 M to 10^-12 M had ethanol added for a final concentration of 0.1%. Stock solutions were used within one month. Control cultures were treated with 0.1% ethanol.
(§4) Approximately 24 hours after passage one, the cells were refed with fresh KGM supplemented to 1.5 mM CaCl2 (assay 1) containing the test compound. In a second assay (assay 2), the cells were grown in KGM without calcium supplementation to stimulate more proliferation and grown for 7 days instead of 5 days. Compounds were typically tested at 4 concentrations in triplicate wells. At the termination of the experiment, prior to the cultures reaching confluency, the cells were enumerated as follows. Dishes were rinsed with phosphate buffered saline, and then incubated with trysin/EDTA solution for 15 minutes. Cells were suspended, an aliquot placed into isotonic buffered saline and counted on an electronic particle counter (Coulter Counter). The counter was periodically calibrated for the correct size of keratinocytes. Each well was counted in triplicate. The number of cells per dish were calculated according to dilution factors used and results shown below in Table 3 are presented as percent inhibition obtained in control cultures.

human keratinocytes [2] = experiment: Keratinocyte proliferation, assay 1 (KGM supplemented to 1.5 mM CaCl2, 5 days); format: cell-based; conditions: for inhibition at 0.03 µM / inhibition at 0.1 µM / inhibition at 0.3 µM / inhibition at 1 µM: Homo sapiens, Keratinocyte; for inhibition at 0.03 µM: assay 1, 0.03 μM; for inhibition at 0.1 µM: assay 1, 0.1 μM; for inhibition at 0.3 µM: assay 1, 0.3 μM; for inhibition at 1 µM: assay 1, 1.0 μM; for antiproliferative activity, assay 1 (in words): assay 1, lower doses
Protocol: as §1, §2, §3, §4

[3] = Exp. 2, read-out: Percentage Inhibition of Controls, Exp. 2
[4] = average of Exp. 1 and 2, read-out: Percentage Inhibition of Controls, Average

SMILES | differentiation of HL-60 / human promyelocytic cells (in words) (HL-60 cells) | resistance to further hydroxylation (in words) (hydroxylase enzymes) | proliferation of human keratinocytes / skin cells (in words) (human keratinocytes [1]) | Percentage of NBT positive cells, Exp. 1 (HL-60 cells; 0.001 μM) [%] | Percentage of NBT positive cells, Exp. 2 (HL-60 cells; 0.001 μM) [%] | Percentage of NBT positive cells, Average (HL-60 cells; 0.001 μM) [%] | Percentage of NBT positive cells, Exp. 1 (HL-60 cells; 0.01 μM) [%] | Percentage of NBT positive cells, Exp. 2 (HL-60 cells; 0.01 μM) [%] | Percentage of NBT positive cells, Average (HL-60 cells; 0.01 μM) [%] | Percentage of NBT positive cells, Exp. 1 (HL-60 cells; 0.1 μM) [%] | Percentage of NBT positive cells, Exp. 2 (HL-60 cells; 0.1 μM) [%] | Percentage of NBT positive cells, Average (HL-60 cells; 0.1 μM) [%] | Percentage of NBT positive cells, Exp. 1 (HL-60 cells; 1.0 μM) [%] | Percentage of NBT positive cells, Exp. 2 (HL-60 cells; 1.0 μM) [%] | Percentage of NBT positive cells, Average (HL-60 cells; 1.0 μM) [%] | EC50 (HL-60 cells) [nM] | inhibition at 0.03 µM (human keratinocytes [2]; [3]) [%] | inhibition at 0.03 µM (human keratinocytes [2]; [4]) [%] | inhibition at 0.1 µM (human keratinocytes [2]; [3]) [%] | inhibition at 0.1 µM (human keratinocytes [2]; [4]) [%] | other results
C=C1/C(=C\C=C2/CCC[C@]3(C)C([C@H](C)CCC(O)C(C)(C)O)=CC[C@@H]23)C[C@@H](O)C[C@@H]1O (stereo partly drawn) [1,24,25(OH)3-16-ene-D3, 1,24,25-trihydroxy-16-ene-cholecalciferol] | stimulate differentiation of HL-60 cells | resisted further hydroxylation from other hydroxylase enzymes | decrease proliferation of human keratinocytes | – | – | – | – | – | – | – | – | – | – | – | – | – | – | – | – | – | –
C=C1/C(=C\C=C2/CCC[C@]3(C)C([C@H](C)CCC(=O)C(C)(C)O)=CC[C@@H]23)C[C@@H](O)C[C@@H]1O [1,25(OH)2-16-ene-24-oxo-D3, 1,25-dihydroxy-16-ene-24-oxo-cholecalciferol] | induced differentiation of human promyelocytic cells; also recorded: stimulates differentiation of HL-60 cells | resisted further hydroxylation from other hydroxylase enzymes | restrained the proliferation of skin cells | 8.0 | 24.5 | 16.25 | 47.0 | 35.5 | 41.25 | 55.0 | 60.0 | 57.5 | 69.0 | 70.0 | 69.5 | 35 | 82.8 | 80.1 | 108 | 89.1 | differentiation of HL-60 / human promyelocytic cells (in words) (HL-60 cells; listed as I): stimulate differentiation of HL-60 cells; potency relative to the parent compound (in words) (HL-60 cells; versus 1,25(OH)2 -16-ene-D3): greater than that of the parent compound; inhibition at 0.3 µM (human keratinocytes [2]; [3]): 73.3%; inhibition at 0.3 µM (human keratinocytes [2]; [4]): 67.8%; inhibition at 1 µM (human keratinocytes [2]; [3]): 73.1%; inhibition at 1 µM (human keratinocytes [2]; [4]): 68.1%; antiproliferative activity, assay 1 (in words) (human keratinocytes [2]): some antiproliferative activity at lower doses, although this activity is not dose dependent; inhibition at 0.03 µM (human keratinocytes [1]): 63 ± 7.21%; inhibition at 0.1 µM (human keratinocytes [1]): 45.3 ± 9.48%; inhibition at 0.3 µM (human keratinocytes [1]): 31.1 ± 11.8%; inhibition at 1 µM (human keratinocytes [1]): 17.4 ± 8.13%; antiproliferative activity, assay 2 (in words) (human keratinocytes [1]): strong antiproliferative activity at lower doses; proliferation of human keratinocytes / skin cells (in words) (human keratinocytes [1]; listed as I): decrease proliferation of human keratinocytes; dose response (in words) (human keratinocytes [1]): good dose response curve
C=C1/C(=C\C=C2/CCC[C@]3(C)C([C@H](C)CCCC(C)(C)O)=CC[C@@H]23)C[C@@H](O)C[C@@H]1O [1,25(OH)2-16-ene-D3, 1,25-dihydroxy-16-ene-cholecalciferol] | – | – | – | 12.0 | 18.5 | 15.25 | 30.5 | 47.5 | 39.0 | 48.0 | 61.0 | 54.5 | 62.5 | 60.5 | 61.5 | 80 | 88.4 | 89.8 | 83.6 | 82.3 | inhibition at 0.3 µM (human keratinocytes [2]; [3]): 89%; inhibition at 0.3 µM (human keratinocytes [2]; [4]): 84.5%; inhibition at 1 µM (human keratinocytes [2]; [3]): 57.1%; inhibition at 1 µM (human keratinocytes [2]; [4]): 58.5%; antiproliferative activity, assay 1 (in words) (human keratinocytes [2]): some antiproliferative activity at lower doses, although this activity is not dose dependent; metabolism (in words) (hydroxylase enzymes; 400 nmoles in 100 mL perfusate, 8 hours): metabolized mainly into two metabolites; inhibition at 0.03 µM (human keratinocytes [1]): 75.6 ± 3.35%; inhibition at 0.1 µM (human keratinocytes [1]): 56.2 ± 5.7%; inhibition at 0.3 µM (human keratinocytes [1]): 36 ± 10.3%; inhibition at 1 µM (human keratinocytes [1]): 22.4 ± 8.55%; antiproliferative activity, assay 2 (in words) (human keratinocytes [1]): strong antiproliferative activity at lower doses; dose response (in words) (human keratinocytes [1]): good dose response curve

From US5401733A, “Stable and active metabolites of 1,25-dihydroxy-16-ene-cholecalciferol” (Hoffmann-La Roche Inc., priority 1993, dated 1995)
